TGI and GI50 data for eight compounds are collected here from PubChem BioAssay (NCI).

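Where inhibition never reached the appropriate level, the endpoint shown equals the highest concentration tested. Otherwise, values were interpolated linearly from a five-concentration, 48-hour dose response in 96-well plates. GI50: concentration for 50% inhibition of growth. At the TGI there is no net growth.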

Experiment in all cases: NCI tumour cell line growth inhibition, 48 h
Test [1] relates to SN12C renal.
In test [2] the test system is SF-295 CNS.
Test [3] relates to IGROV1 ovarian.
Test [4] relates to SK-MEL-2 melanoma.
Test [5] has as its system OVCAR-3 ovarian.
In test [6] the test system is MDA-MB-231 breast.
In test [7] the test system is MOLT-4 leukemia.
In test [8] the test system is LOX IMVI melanoma.
For test [9], the system named is SF-268 CNS.
The test system of test [10] is HOP-62 NSCLC.
For test [11], the system named is KM12 colon.
In test [12] the test system is HCT-116 colon.
In test [13] the test system is CCRF-CEM leukemia.
For test [14], the system named is CAKI-1 renal.
The subject of test [15] is SF-539 CNS.
Test [16] concerns NCI-H23 lung.
In test [17] the test system is MDA-MB-435.
Test [18] concerns NCI-H522 lung.
Test [19] deals with HL-60(TB) leukemia.

With `COc1cc2c(/C=C3/C(=O)Nc4ccc(O)cc43)c(Cl)n(Cc3ccccc3)c2cc1C`, the TGI was more than 45.3 µM in [1]; 3.91 µM in test [2]; 16.8 µM in test [3]; more than 100 µM in test [4]; 0.704 µM in [5]; 42 µM in test [6]. For the same compound, the TGI in test [7] was more than 100 µM; in test [8] it was 24.9 µM; in test [9] it was 24.9 µM; in test [10] it was 9.39 µM; in test [11], 1.35 µM; in test [12], 1.91 µM. For the same compound, the TGI was more than 100 µM in [13], 19.2 µM in test [14], 3.8 µM in [15] and 3.89 µM in [16]. Moreover, in test [10], the GI50 is 0.403 µM.
As to `COc1cc(C(=O)NNC(=O)c2cc(Br)ccc2NC(=O)c2cccs2)cc(OC)c1OC`, the TGI in [1] is 60.3 µM; in test [2] it was 48.9 µM; in [3], more than 100 µM; in test [4], 44.9 µM; in test [17] it was 50 µM; in test [5], more than 100 µM. The TGI is more than 100 µM in test [7]; 53.3 µM in test [18]; 37.1 µM in [8]; 29.3 µM in test [9]; 42.2 µM in test [10]; more than 100 µM in test [11]. In addition, the TGI was 93.6 µM in [19]; 51.5 µM in test [12]; more than 100 µM in test [13]; more than 100 µM in test [14]; 30 µM in test [15]; 57.1 µM in [16].
Take `CC(=O)OC1C=C(C=O)C(O)(C=O)C2(C)CCCC(C)(C)C12` (stereo not given): the TGI in test [1] amounted to 5.97 µM; in test [2] it was 6.31 µM; in test [3], 6.05 µM; in [4], 6.81 µM; in [5] it was 2.15 µM; in [7], 0.629 µM. Also, the TGI in test [18] is 1.16 µM; in test [8], 2.93 µM; in test [9], 5.35 µM; in test [10], 14.6 µM; in [11], 5.14 µM; in test [19], 0.895 µM. Further, the TGI in test [12] came out at 3.92 µM; in test [13] it was 0.706 µM; in [14], 3.15 µM; in test [15], 5.74 µM; in test [16], 4.92 µM.
Turning to `COC(=O)c1ccccc1/C=C1\Cc2c(C)c3c(c(C)c2C1=O)CCC3`, the TGI in [1], in test [2], in test [3], in test [4], in test [17] and in [5] was more than 100 µM throughout. Besides, the TGI in [7], in [18], in test [8], in [9], in test [10] and in test [11] was more than 100 µM throughout. The TGI in test [19], in [12], in test [13], in [14], in [15] and in test [16] was more than 100 µM each time.
For the compound `CCSc1nnc(Sc2c3ccccc3nc3ccccc23)s1`, the TGI in [1] is 59.9 µM; in test [2] it was more than 100 µM; in [3], more than 55 µM; in test [4] it was 56.2 µM; in test [17], more than 61.8 µM; in test [5], 29.4 µM. Further, the TGI was 56.6 µM in test [6]; 6.25 µM in test [7]; 23.7 µM in [8]; more than 56.4 µM in [9]; more than 100 µM in test [10]; 77.8 µM in test [11]. Moreover, the TGI is 23.5 µM in [12]; more than 100 µM in test [13]; 15.5 µM in [14]; 21.9 µM in [15]; 53.1 µM in test [16].
Consider `Cc1cccc(N/C(=C(/C(Cl)=C(Cl)Cl)[N+](=O)[O-])n2nnc3ccccc32)c1`, for which the TGI in [1] was found to be 32.9 µM; in test [2] it was 32 µM; in test [4], 36.3 µM; in test [17], 38.8 µM; in [5] it was 35.5 µM; in test [6], 27.1 µM. Besides, the TGI in test [7] is more than 100 µM; in [9] it was 31.1 µM; in [10], 33.3 µM; in test [11] it was 29.3 µM; in [12], 32.9 µM; in test [13] it was more than 100 µM. Moreover, the results for the TGI in test [14], in [15] and in test [16] were 31.4 µM, 32 µM and 34.7 µM, respectively.
Regarding `Cc1[nH]c(=O)[nH]c(=O)c1/C=C/C(=O)NC(CO)CC(C)C` (stereo not given), the TGI is more than 375 µM in test [1]; more than 375 µM in test [2]; more than 375 µM in test [3]; more than 375 µM in test [4]; more than 375 µM in test [5]; more than 211 µM in test [7]. Further, the TGI in test [18], in test [8], in test [9], in test [10], in test [11] and in test [19] was more than 375 µM each time. For the same compound, the TGI in test [12] was more than 375 µM; in [13], more than 375 µM; in test [14], 310 µM; in test [15] it was more than 375 µM; in [16], more than 375 µM.
As to `CCC1CN2CCc3cc(OC)c(OC)cc3C2CC1CC1c2cc(OC)c(OC)cc2CCN1C(=O)C(N)Cc1ccccc1` (stereo not given), the TGI in [1] was 10.8 µM; in test [2] it was 10.3 µM; in test [4] it was 6.1 µM; in test [5] it was 15.4 µM; in test [7], 1.78 µM; in test [18] it was 1.73 µM. Besides, the TGI in test [8] stood at 10.9 µM; in test [9] it was 13.7 µM; in test [10] it was 7.78 µM; in test [11], 10.2 µM; in test [19], 4.8 µM; in [12], 1.29 µM. The TGI was found to be 10.2 µM in [13], 11.2 µM in test [14], 7.48 µM in test [15] and 7.64 µM in test [16].
